Source: PubChem BioAssay (NCI)
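96-well plates; 48 h exposure; 5 concentrations. Endpoints by linear interpolation between flanking doses. Not reached: highest tested concentration assigned. The concentration for 50% growth inhibition is given as GI50. Definition used: TGI = concentration required for complete inhibition of growth.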

Experiments:
Assay in all cases: NCI tumour cell line growth inhibition, 48 h
T-47D breast = tested on: T-47D breast
BT-549 breast = tested on: BT-549 breast
UACC-257 melanoma = tested on: UACC-257 melanoma
OVCAR-8 ovarian = tested on: OVCAR-8 ovarian
OVCAR-4 ovarian = tested on: OVCAR-4 ovarian
SNB-75 CNS = tested on: SNB-75 CNS
A549 NSCLC = tested on: A549 NSCLC
CCRF-CEM leukemia = tested on: CCRF-CEM leukemia
SF-268 CNS = tested on: SF-268 CNS
CAKI-1 renal = tested on: CAKI-1 renal
EKVX NSCLC = tested on: EKVX NSCLC
DU-145 prostate = tested on: DU-145 prostate
UACC-62 melanoma = tested on: UACC-62 melanoma
OVCAR-3 ovarian = tested on: OVCAR-3 ovarian
MOLT-4 leukemia = tested on: MOLT-4 leukemia
RPMI-8226 leukemia = tested on: RPMI-8226 leukemia
PC-3 prostate = tested on: PC-3 prostate
SNB-19 CNS = tested on: SNB-19 CNS
M14 melanoma = tested on: M14 melanoma
HOP-92 NSCLC = tested on: HOP-92 NSCLC
A498 renal = tested on: A498 renal
SK-MEL-5 melanoma = tested on: SK-MEL-5 melanoma
SR leukemia = tested on: SR leukemia
HCT-15 colon = tested on: HCT-15 colon
SW-620 colon = tested on: SW-620 colon
MDA-MB-468 breast = tested on: MDA-MB-468 breast
OVCAR-5 ovarian = tested on: OVCAR-5 ovarian
HOP-62 NSCLC = tested on: HOP-62 NSCLC
NCI-H460 lung = tested on: NCI-H460 lung
HS 578T breast = tested on: HS 578T breast
SK-MEL-2 melanoma = tested on: SK-MEL-2 melanoma
K-562 leukemia = tested on: K-562 leukemia
TK-10 renal = tested on: TK-10 renal
HT29 colon = tested on: HT29 colon
HCC-2998 colon = tested on: HCC-2998 colon
NCI-H226 lung = tested on: NCI-H226 lung
786-0 renal = tested on: 786-0 renal
ACHN renal = tested on: ACHN renal
RXF 393 renal = tested on: RXF 393 renal
LOX IMVI melanoma = tested on: LOX IMVI melanoma
COLO 205 colon = tested on: COLO 205 colon
HL-60(TB) leukemia = tested on: HL-60(TB) leukemia
U251 CNS = tested on: U251 CNS
MCF7 breast = tested on: MCF7 breast
SK-MEL-28 melanoma = tested on: SK-MEL-28 melanoma
SK-OV-3 ovarian = tested on: SK-OV-3 ovarian
SF-295 CNS = tested on: SF-295 CNS
KM12 colon = tested on: KM12 colon
MALME-3M melanoma = tested on: MALME-3M melanoma
HCT-116 colon = tested on: HCT-116 colon
SN12C renal = tested on: SN12C renal
NCI-H522 lung = tested on: NCI-H522 lung
NCI-H23 lung = tested on: NCI-H23 lung
MDA-MB-435 = tested on: MDA-MB-435
MDA-MB-231 breast = tested on: MDA-MB-231 breast
UO-31 renal = tested on: UO-31 renal

Cc1ccc(C(=O)Nc2ccc(-n3ccnc3)c(C(F)(F)F)c2)cc1C#Cc1cnc2cccnn12
GI50 (T-47D breast): 0.943 µM | TGI (T-47D breast): 4.11 µM | GI50 (BT-549 breast): 1.42 µM | TGI (BT-549 breast): 4.08 µM | GI50 (UACC-257 melanoma): 1.19 µM | TGI (UACC-257 melanoma): > 45.8 µM | GI50 (OVCAR-8 ovarian): 1.32 µM | TGI (OVCAR-8 ovarian): > 45.8 µM | GI50 (OVCAR-4 ovarian): 1.3 µM | TGI (OVCAR-4 ovarian): > 45.8 µM | GI50 (SNB-75 CNS): 0.69 µM | TGI (SNB-75 CNS): 5.75 µM | GI50 (A549 NSCLC): 1.82 µM | TGI (A549 NSCLC): > 45.8 µM | GI50 (CCRF-CEM leukemia): 1.38 µM | TGI (CCRF-CEM leukemia): > 45.8 µM | GI50 (SF-268 CNS): 1.98 µM | TGI (SF-268 CNS): > 45.8 µM | GI50 (CAKI-1 renal): 1.42 µM | TGI (CAKI-1 renal): 16 µM | GI50 (EKVX NSCLC): 3.11 µM | TGI (EKVX NSCLC): > 45.8 µM | GI50 (DU-145 prostate): 2.53 µM | TGI (DU-145 prostate): > 45.8 µM | GI50 (UACC-62 melanoma): 0.495 µM | TGI (UACC-62 melanoma): 1.62 µM | GI50 (OVCAR-3 ovarian): 2.38 µM | TGI (OVCAR-3 ovarian): > 45.8 µM | GI50 (MOLT-4 leukemia): 0.822 µM | TGI (MOLT-4 leukemia): 3.51 µM | GI50 (RPMI-8226 leukemia): 0.83 µM | TGI (RPMI-8226 leukemia): 3.6 µM | GI50 (PC-3 prostate): 1.55 µM | TGI (PC-3 prostate): 12.1 µM | GI50 (SNB-19 CNS): 6.06 µM | TGI (SNB-19 CNS): > 45.8 µM | GI50 (M14 melanoma): 0.567 µM | TGI (M14 melanoma): > 45.8 µM | GI50 (HOP-92 NSCLC): 0.702 µM | TGI (HOP-92 NSCLC): 3.1 µM | GI50 (A498 renal): 2.69 µM | TGI (A498 renal): > 45.8 µM | GI50 (SK-MEL-5 melanoma): 1.27 µM | TGI (SK-MEL-5 melanoma): 4.92 µM | GI50 (SR leukemia): 1.33 µM | TGI (SR leukemia): > 45.8 µM | GI50 (HCT-15 colon): 1.29 µM | TGI (HCT-15 colon): > 45.8 µM | GI50 (SW-620 colon): 1.19 µM | TGI (SW-620 colon): > 45.8 µM | GI50 (MDA-MB-468 breast): 1.57 µM | TGI (MDA-MB-468 breast): > 45.8 µM | GI50 (OVCAR-5 ovarian): 1.02 µM | TGI (OVCAR-5 ovarian): > 45.8 µM | GI50 (HOP-62 NSCLC): 1.36 µM | TGI (HOP-62 NSCLC): > 45.8 µM | GI50 (NCI-H460 lung): 1.73 µM | TGI (NCI-H460 lung): > 45.8 µM | GI50 (HS 578T breast): 0.713 µM | TGI (HS 578T breast): 2.93 µM | GI50 (SK-MEL-2 melanoma): 0.458 µM | TGI (SK-MEL-2 melanoma): 2.51 µM | GI50 (K-562 leukemia): 0.00458 µM | TGI (K-562 leukemia): > 45.8 µM | GI50 (TK-10 renal): 2.91 µM | TGI (TK-10 renal): > 45.8 µM | GI50 (HT29 colon): 0.915 µM | TGI (HT29 colon): > 45.8 µM | GI50 (HCC-2998 colon): 1.13 µM | TGI (HCC-2998 colon): > 45.8 µM | GI50 (NCI-H226 lung): 0.567 µM | TGI (NCI-H226 lung): 14.4 µM | GI50 (786-0 renal): 2.7 µM | TGI (786-0 renal): > 45.8 µM | GI50 (ACHN renal): 1.64 µM | TGI (ACHN renal): 20.5 µM | GI50 (RXF 393 renal): 1.12 µM | TGI (RXF 393 renal): 3.31 µM | GI50 (LOX IMVI melanoma): 0.637 µM | TGI (LOX IMVI melanoma): > 45.8 µM | GI50 (COLO 205 colon): 1.22 µM | TGI (COLO 205 colon): > 45.8 µM | GI50 (HL-60(TB) leukemia): 0.215 µM | TGI (HL-60(TB) leukemia): 1.54 µM | GI50 (U251 CNS): 3.66 µM | TGI (U251 CNS): > 45.8 µM | GI50 (MCF7 breast): 2.14 µM | TGI (MCF7 breast): > 45.8 µM | GI50 (SK-MEL-28 melanoma): 0.79 µM | TGI (SK-MEL-28 melanoma): 5.78 µM | GI50 (SK-OV-3 ovarian): 5.18 µM | TGI (SK-OV-3 ovarian): > 45.8 µM | GI50 (SF-295 CNS): 1.27 µM | TGI (SF-295 CNS): > 45.8 µM | GI50 (KM12 colon): 0.203 µM | TGI (KM12 colon): > 45.8 µM | GI50 (MALME-3M melanoma): 0.198 µM | TGI (MALME-3M melanoma): 1.72 µM | GI50 (HCT-116 colon): 0.917 µM | TGI (HCT-116 colon): > 45.8 µM | GI50 (SN12C renal): 1.06 µM | TGI (SN12C renal): > 45.8 µM | GI50 (NCI-H522 lung): 0.851 µM | TGI (NCI-H522 lung): 3.36 µM | GI50 (NCI-H23 lung): 1.02 µM | TGI (NCI-H23 lung): > 45.8 µM | GI50 (MDA-MB-435): 1.1 µM | TGI (MDA-MB-435): > 45.8 µM | GI50 (MDA-MB-231 breast): 0.331 µM | TGI (MDA-MB-231 breast): 3.21 µM | GI50 (UO-31 renal): 0.702 µM | TGI (UO-31 renal): > 45.8 µM
